Results from PubChem BioAssay (NCI).
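Each compound was tested at five concentrations against cells in 96-well plates for 48 hours. At the TGI there is no net growth.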

Tests used:
Experiment in all cases: NCI anticancer screen, dose series, 48 h
786-0 renal = system: 786-0 renal
A498 renal = system: A498 renal
A549 NSCLC = system: A549 NSCLC
ACHN renal = system: ACHN renal
CCRF-CEM leukemia = system: CCRF-CEM leukemia
COLO 205 colon = system: COLO 205 colon
DLD-1 colon = system: DLD-1 colon
DMS 114 small cell lung = system: DMS 114 small cell lung
DMS 273 small cell lung = system: DMS 273 small cell lung
EKVX NSCLC = system: EKVX NSCLC
HCC-2998 colon = system: HCC-2998 colon
HCT-116 colon = system: HCT-116 colon
HCT-15 colon = system: HCT-15 colon
HL-60(TB) leukemia = system: HL-60(TB) leukemia
HOP-18 NSCLC = system: HOP-18 NSCLC
HOP-62 NSCLC = system: HOP-62 NSCLC
HOP-92 NSCLC = system: HOP-92 NSCLC
HT29 colon = system: HT29 colon
IGROV1 ovarian = system: IGROV1 ovarian
K-562 leukemia = system: K-562 leukemia
KM12 colon = system: KM12 colon
KM20L2 colon = system: KM20L2 colon
LOX IMVI melanoma = system: LOX IMVI melanoma
LXFL 529 NSCLC = system: LXFL 529 NSCLC
M14 melanoma = system: M14 melanoma
M19-MEL melanoma = system: M19-MEL melanoma
MALME-3M melanoma = system: MALME-3M melanoma
MOLT-4 leukemia = system: MOLT-4 leukemia
NCI-H226 lung = system: NCI-H226 lung
NCI-H23 lung = system: NCI-H23 lung
NCI-H460 lung = system: NCI-H460 lung
NCI-H522 lung = system: NCI-H522 lung
OVCAR-3 ovarian = system: OVCAR-3 ovarian
OVCAR-4 ovarian = system: OVCAR-4 ovarian
OVCAR-8 ovarian = system: OVCAR-8 ovarian
RPMI-8226 leukemia = system: RPMI-8226 leukemia
RXF 393 renal = system: RXF 393 renal
SF-268 CNS = system: SF-268 CNS
SF-295 CNS = system: SF-295 CNS
SF-539 CNS = system: SF-539 CNS
SK-MEL-2 melanoma = system: SK-MEL-2 melanoma
SK-MEL-28 melanoma = system: SK-MEL-28 melanoma
SK-OV-3 ovarian = system: SK-OV-3 ovarian
SN12C renal = system: SN12C renal
SNB-19 CNS = system: SNB-19 CNS
SNB-75 CNS = system: SNB-75 CNS
SNB-78 CNS = system: SNB-78 CNS
SR leukemia = system: SR leukemia
SW-620 colon = system: SW-620 colon
TK-10 renal = system: TK-10 renal
U251 CNS = system: U251 CNS
UACC-257 melanoma = system: UACC-257 melanoma
UACC-62 melanoma = system: UACC-62 melanoma
UO-31 renal = system: UO-31 renal
XF 498 CNS = system: XF 498 CNS
OVCAR-5 ovarian = system: OVCAR-5 ovarian
RXF-631 renal = system: RXF-631 renal
CAKI-1 renal = system: CAKI-1 renal
SK-MEL-5 melanoma = system: SK-MEL-5 melanoma

CC(=O)c1cccc(N2COC(C)(C)c3nc4ccccc4n3C2)c1 gave a TGI (786-0 renal) of over 100 µM, a TGI (A498 renal) of over 100 µM and a TGI (A549 NSCLC) of over 100 µM. The TGI (ACHN renal) was over 100 µM, the TGI (CCRF-CEM leukemia) was over 100 µM and the TGI (COLO 205 colon) was over 100 µM. It also gave a TGI (DLD-1 colon) of over 100 µM, a TGI (DMS 114 small cell lung) of over 100 µM and a TGI (DMS 273 small cell lung) of over 100 µM. For the same compound, the TGI (EKVX NSCLC) was over 100 µM, the TGI (HCC-2998 colon) was over 100 µM and the TGI (HCT-116 colon) was over 100 µM. The TGI (HCT-15 colon) was over 100 µM, the TGI (HL-60(TB) leukemia) was over 100 µM and the TGI (HOP-18 NSCLC) was over 100 µM. It also gave a TGI (HOP-62 NSCLC) of over 100 µM, a TGI (HOP-92 NSCLC) of over 100 µM and a TGI (HT29 colon) of over 100 µM. The TGI (IGROV1 ovarian) was over 100 µM, the TGI (K-562 leukemia) was over 100 µM and the TGI (KM12 colon) was over 100 µM. It also gave a TGI (KM20L2 colon) of over 100 µM, a TGI (LOX IMVI melanoma) of over 100 µM and a TGI (LXFL 529 NSCLC) of over 100 µM. It also gave a TGI (M14 melanoma) of over 100 µM, a TGI (M19-MEL melanoma) of over 100 µM and a TGI (MALME-3M melanoma) of over 100 µM. The TGI (MOLT-4 leukemia) was over 100 µM, the TGI (NCI-H226 lung) was over 100 µM and the TGI (NCI-H23 lung) was over 100 µM. It also gave a TGI (NCI-H460 lung) of over 100 µM, a TGI (NCI-H522 lung) of over 100 µM and a TGI (OVCAR-3 ovarian) of over 100 µM. For the same compound, the TGI (OVCAR-4 ovarian) was over 100 µM, the TGI (OVCAR-8 ovarian) was over 100 µM and the TGI (RPMI-8226 leukemia) was over 100 µM. It also gave a TGI (RXF 393 renal) of over 100 µM, a TGI (SF-268 CNS) of over 100 µM and a TGI (SF-295 CNS) of over 100 µM. The TGI (SF-539 CNS) was over 100 µM, the TGI (SK-MEL-2 melanoma) was over 100 µM and the TGI (SK-MEL-28 melanoma) was over 100 µM. For the same compound, the TGI (SK-OV-3 ovarian) was over 100 µM, the TGI (SN12C renal) was over 100 µM and the TGI (SNB-19 CNS) was over 100 µM. For the same compound, the TGI (SNB-75 CNS) was over 100 µM, the TGI (SNB-78 CNS) was over 100 µM and the TGI (SR leukemia) was over 100 µM. It also gave a TGI (SW-620 colon) of over 100 µM, a TGI (TK-10 renal) of over 100 µM and a TGI (U251 CNS) of over 100 µM. For the same compound, the TGI (UACC-257 melanoma) was over 100 µM, the TGI (UACC-62 melanoma) was over 100 µM and the TGI (UO-31 renal) was over 100 µM. It also gave a TGI (XF 498 CNS) of over 100 µM.
CCN(CC)CSc1nc2ccccc2o1 was tested, and the TGI (A498 renal) was over 100 µM, the TGI (A549 NSCLC) was over 100 µM and the TGI (ACHN renal) was over 100 µM. It also gave a TGI (CCRF-CEM leukemia) of over 100 µM, a TGI (DMS 114 small cell lung) of over 100 µM and a TGI (DMS 273 small cell lung) of over 100 µM. It also gave a TGI (EKVX NSCLC) of over 100 µM, a TGI (HCT-116 colon) of over 100 µM and a TGI (HL-60(TB) leukemia) of over 100 µM. For the same compound, the TGI (HOP-62 NSCLC) was over 100 µM, the TGI (HOP-92 NSCLC) was over 100 µM and the TGI (HT29 colon) was over 100 µM. It also gave a TGI (IGROV1 ovarian) of over 100 µM, a TGI (KM12 colon) of over 100 µM and a TGI (M14 melanoma) of over 100 µM. For the same compound, the TGI (M19-MEL melanoma) was over 100 µM, the TGI (MOLT-4 leukemia) was over 100 µM and the TGI (NCI-H23 lung) was over 100 µM. The TGI (NCI-H460 lung) was over 100 µM, the TGI (NCI-H522 lung) was over 100 µM and the TGI (OVCAR-5 ovarian) was over 100 µM. The TGI (OVCAR-8 ovarian) was over 100 µM, the TGI (RXF 393 renal) was over 100 µM and the TGI (RXF-631 renal) was over 100 µM. It also gave a TGI (SF-295 CNS) of over 100 µM, a TGI (SK-MEL-28 melanoma) of over 100 µM and a TGI (SK-OV-3 ovarian) of over 100 µM. The TGI (SNB-19 CNS) was over 100 µM, the TGI (SNB-78 CNS) was over 100 µM and the TGI (SR leukemia) was over 100 µM. It also gave a TGI (TK-10 renal) of over 100 µM, a TGI (U251 CNS) of over 100 µM and a TGI (UACC-257 melanoma) of over 100 µM. It also gave a TGI (UACC-62 melanoma) of over 100 µM and a TGI (UO-31 renal) of over 100 µM.
Compound O=C(Nc1ccc(Cl)cc1Cl)C(=O)Nn1c(=S)[nH]c2ccccc2c1=O has a TGI (786-0 renal) of over 100 µM, a TGI (A549 NSCLC) of over 100 µM and a TGI (CCRF-CEM leukemia) of over 100 µM. For the same compound, the TGI (DMS 114 small cell lung) was over 100 µM, the TGI (DMS 273 small cell lung) was over 100 µM and the TGI (HCC-2998 colon) was over 100 µM. The TGI (HCT-116 colon) was over 100 µM, the TGI (HCT-15 colon) was over 100 µM and the TGI (HL-60(TB) leukemia) was over 100 µM. The TGI (HOP-18 NSCLC) was over 100 µM, the TGI (K-562 leukemia) was over 100 µM and the TGI (LXFL 529 NSCLC) was over 100 µM. For the same compound, the TGI (M14 melanoma) was over 100 µM, the TGI (M19-MEL melanoma) was over 100 µM and the TGI (MALME-3M melanoma) was over 100 µM. For the same compound, the TGI (MOLT-4 leukemia) was over 100 µM, the TGI (NCI-H460 lung) was over 100 µM and the TGI (NCI-H522 lung) was over 100 µM. It also gave a TGI (OVCAR-3 ovarian) of over 100 µM, a TGI (RPMI-8226 leukemia) of over 100 µM and a TGI (RXF 393 renal) of over 100 µM. For the same compound, the TGI (RXF-631 renal) was over 100 µM, the TGI (SF-268 CNS) was over 100 µM and the TGI (SK-MEL-2 melanoma) was over 100 µM. It also gave a TGI (SK-MEL-28 melanoma) of over 100 µM, a TGI (SK-OV-3 ovarian) of over 100 µM and a TGI (SNB-78 CNS) of over 100 µM. For the same compound, the TGI (SR leukemia) was over 100 µM, the TGI (U251 CNS) was over 100 µM and the TGI (UO-31 renal) was over 100 µM.
Compound COC(=O)C1C(C(=O)OC)C2(OC)c3ccccc3-c3ccccc3C12 (configuration not stated) has a TGI (786-0 renal) of over 100 µM, a TGI (A498 renal) of over 100 µM and a TGI (A549 NSCLC) of over 100 µM. For the same compound, the TGI (ACHN renal) was over 100 µM, the TGI (CAKI-1 renal) was over 100 µM and the TGI (CCRF-CEM leukemia) was 64.3 µM. It also gave a TGI (COLO 205 colon) of 31.3 µM, a TGI (DLD-1 colon) of over 100 µM and a TGI (DMS 114 small cell lung) of 87.9 µM. For the same compound, the TGI (DMS 273 small cell lung) was 43 µM, the TGI (EKVX NSCLC) was over 100 µM and the TGI (HCC-2998 colon) was over 100 µM. It also gave a TGI (HCT-116 colon) of over 100 µM, a TGI (HCT-15 colon) of over 100 µM and a TGI (HL-60(TB) leukemia) of 25.3 µM. For the same compound, the TGI (HOP-18 NSCLC) was over 100 µM, the TGI (HOP-62 NSCLC) was over 100 µM and the TGI (HOP-92 NSCLC) was over 100 µM. The TGI (HT29 colon) was over 100 µM, the TGI (IGROV1 ovarian) was over 100 µM and the TGI (K-562 leukemia) was 76.9 µM. For the same compound, the TGI (KM12 colon) was over 100 µM, the TGI (KM20L2 colon) was 87.9 µM and the TGI (LOX IMVI melanoma) was over 100 µM. The TGI (LXFL 529 NSCLC) was over 100 µM, the TGI (M14 melanoma) was over 100 µM and the TGI (M19-MEL melanoma) was over 100 µM. For the same compound, the TGI (MALME-3M melanoma) was over 100 µM, the TGI (MOLT-4 leukemia) was 43.6 µM and the TGI (NCI-H226 lung) was over 100 µM. It also gave a TGI (NCI-H23 lung) of over 100 µM, a TGI (NCI-H460 lung) of over 100 µM and a TGI (NCI-H522 lung) of 88.8 µM. For the same compound, the TGI (OVCAR-3 ovarian) was over 100 µM, the TGI (OVCAR-4 ovarian) was over 100 µM and the TGI (OVCAR-5 ovarian) was over 100 µM. For the same compound, the TGI (OVCAR-8 ovarian) was over 100 µM, the TGI (RPMI-8226 leukemia) was 71.8 µM and the TGI (RXF 393 renal) was over 100 µM. The TGI (RXF-631 renal) was over 100 µM, the TGI (SF-268 CNS) was over 100 µM and the TGI (SF-295 CNS) was over 100 µM. For the same compound, the TGI (SF-539 CNS) was over 100 µM, the TGI (SK-MEL-2 melanoma) was 54.5 µM and the TGI (SK-MEL-28 melanoma) was over 100 µM. It also gave a TGI (SK-MEL-5 melanoma) of 78.7 µM, a TGI (SK-OV-3 ovarian) of over 100 µM and a TGI (SN12C renal) of over 100 µM. For the same compound, the TGI (SNB-19 CNS) was over 100 µM, the TGI (SNB-75 CNS) was over 100 µM and the TGI (SR leukemia) was 42 µM. It also gave a TGI (SW-620 colon) of over 100 µM, a TGI (TK-10 renal) of over 100 µM and a TGI (U251 CNS) of over 100 µM. The TGI (UACC-257 melanoma) was over 100 µM, the TGI (UACC-62 melanoma) was over 100 µM and the TGI (UO-31 renal) was over 100 µM.
